In patent US20240247080A1, “GLP1/GIP/NPY2 RECEPTOR TRIPLE AGONISTS” (Boehringer Ingelheim International GmbH, priority 2022, published 2024):
pEC50: −log10 of the molar value. Read-outs that look alike come from different tables or passages of the source. Starred links: 1 amine or outer side, 2 acyl side, 3 side chain; linkers in the order of their positions; H or OH if unused. Non-standard residues stand in square brackets, D forms with d. Groups on a side chain read outwards from the residue. *: point of attachment. C20 diacid = O=C(O)CCCCCCCCCCCCCCCCCCC(=O)*; C18 diacid = O=C(O)CCCCCCCCCCCCCCCCC(=O)*; γGlu = O=C(O)[C@H](CCC(=O)[*:2])N[*:1]; εLys = N[C@@H](CCCCN[*:1])C(=O)[*:2]; NMeR = CN[C@@H](CCCNC(=N)N)C(=O)O; AEEA = NCCOCCOCC(=O)O; Aib = CC(C)(N)C(=O)O

Assays:
Assay type in all cases: cell-based
hGLP1R = target: T1, hGLP1R (Homo sapiens, UniProt P43220); test: hGLP1R CreLuc reporter gene assay in 0.5% and 100% plasma
T1 construct: expressed in transfected cells; host or cells: HEK-293 cells carrying a CRE-luciferase reporter gene
T1 sequence (P43220 24-463): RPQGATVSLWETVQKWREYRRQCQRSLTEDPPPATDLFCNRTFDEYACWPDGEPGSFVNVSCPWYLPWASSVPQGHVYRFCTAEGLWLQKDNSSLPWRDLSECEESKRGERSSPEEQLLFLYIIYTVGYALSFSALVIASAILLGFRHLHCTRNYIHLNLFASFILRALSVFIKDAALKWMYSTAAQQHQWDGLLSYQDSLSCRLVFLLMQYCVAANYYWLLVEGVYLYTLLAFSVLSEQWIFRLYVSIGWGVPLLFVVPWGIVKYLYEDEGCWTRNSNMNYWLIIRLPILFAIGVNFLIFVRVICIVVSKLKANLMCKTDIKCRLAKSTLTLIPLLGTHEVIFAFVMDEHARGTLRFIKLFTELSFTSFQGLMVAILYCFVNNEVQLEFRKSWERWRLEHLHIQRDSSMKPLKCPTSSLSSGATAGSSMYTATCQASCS
In short: (§1)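 Agonist EC50s came from 8-concentration curves over four decades, fitted by non-linear variable-slope regression of CRE-driven luciferase luminescence. Cells were exposed 4 h at 37 °C, in buffer with 0.5% human plasma or in 100% plasma; GIPR was expressed in CHO cells, GLP-1R and NPY2R in HEK cells.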

hGIPR = target: T2, hGIPR (Homo sapiens, UniProt P48546); test: hGIPR CreLuc reporter gene assay in 0.5% and 100% plasma
T2 construct: expressed in transfected cells; host or cells: CHO cells carrying a CRE-luciferase reporter gene
T2 sequence (P48546 22-466): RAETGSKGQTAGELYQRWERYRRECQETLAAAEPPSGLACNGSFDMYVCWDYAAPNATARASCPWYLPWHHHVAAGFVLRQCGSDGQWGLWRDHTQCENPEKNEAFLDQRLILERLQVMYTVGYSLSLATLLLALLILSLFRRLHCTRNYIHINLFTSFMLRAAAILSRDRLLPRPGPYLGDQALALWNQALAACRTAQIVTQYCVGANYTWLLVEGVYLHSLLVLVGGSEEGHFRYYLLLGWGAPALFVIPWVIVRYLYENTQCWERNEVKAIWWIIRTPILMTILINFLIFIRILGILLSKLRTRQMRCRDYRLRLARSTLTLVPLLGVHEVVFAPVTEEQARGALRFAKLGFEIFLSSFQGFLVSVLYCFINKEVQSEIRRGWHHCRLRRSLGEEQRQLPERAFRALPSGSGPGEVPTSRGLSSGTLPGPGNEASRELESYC
In short: as §1

hNPY2R = target: T3, hNPY2R (Homo sapiens, UniProt P49146); test: hNPY2R CreLuc reporter gene assay in 0.5% and 100% plasma
T3 construct: expressed in transfected cells; host or cells: HEK-293 cells carrying a CRE-luciferase reporter gene
T3 sequence (P49146 1-381): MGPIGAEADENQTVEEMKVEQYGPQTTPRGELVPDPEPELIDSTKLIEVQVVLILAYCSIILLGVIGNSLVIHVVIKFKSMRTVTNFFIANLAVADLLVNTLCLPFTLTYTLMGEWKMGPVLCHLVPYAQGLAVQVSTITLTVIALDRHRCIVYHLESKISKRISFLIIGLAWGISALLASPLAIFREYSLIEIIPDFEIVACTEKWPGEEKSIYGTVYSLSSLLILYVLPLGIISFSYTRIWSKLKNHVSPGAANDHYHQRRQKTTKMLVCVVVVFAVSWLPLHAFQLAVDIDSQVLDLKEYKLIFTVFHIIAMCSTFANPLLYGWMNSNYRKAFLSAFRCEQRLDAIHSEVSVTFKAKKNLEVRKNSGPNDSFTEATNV
In short: as §1

[1] = CreLuc reporter gene assay, 0.5% human plasma, read-out: hGLP1R 0.5% hP
[2] = CreLuc reporter gene assay, 0.5% human plasma, read-out: hGIPR 0.5% hP
[3] = CreLuc reporter gene assay, 100% human plasma, read-out: hGIPR 100% hP
[4] = CreLuc reporter gene assay, 0.5% human plasma, read-out: hNPY2R 0.5% hP
[5] = CreLuc reporter gene assay, 100% human plasma, read-out: hNPY2R 100% hP

Row | pEC50 (hGLP1R; [1]) | pEC50 (hGIPR; [2]) | pEC50 (hGIPR; [3]) | pEC50 (hNPY2R; [4]) | pEC50 (hNPY2R; [5]) | Compound | pEC50 (hGLP1R; hGLP1R 0.5% hP) | pEC50 (hGLP1R; hGLP1R 100% hP) | pEC50 (hGIPR; hGIPR 0.5% hP) | pEC50 (hNPY2R; hNPY2R 0.5% hP)
1 |  |  |  |  |  | CC[C@H](C)[C@H](NC(=O)[C@H](CC(C)C)NC(=O)[C@H](Cc1c[nH]c2ccccc12)NC(=O)[C@H](CCC(=O)O)NC(=O)[C@@H](NC(=O)[C@H](Cc1ccccc1)NC(=O)[C@H](C)NC(=O)C(C)(C)NC(=O)[C@H](CCC(N)=O)NC(=O)[C@H](C)NC(=O)[C@H](CCC(N)=O)NC(=O)[C@H](CCCCN)NC(=O)[C@H](CCC(=O)O)NC(=O)[C@H](CC(C)C)NC(=O)C(C)(C)NC(=O)[C@@H](NC(=O)[C@H](CO)NC(=O)[C@H](Cc1ccc(O)cc1)NC(=O)[C@H](CC(=O)O)NC(=O)[C@H](CO)NC(=O)[C@@H](NC(=O)[C@H](Cc1ccccc1)NC(=O)[C@@H](NC(=O)CNC(=O)[C@H](CC(=O)O)NC(=O)C(C)(C)NC(=O)[C@@H](N)Cc1ccc(O)cc1)[C@@H](C)O)[C@@H](C)O)[C@@H](C)CC)C(C)C)C(=O)N[C@@H](CCCCNC(=O)[C@@H](N)CCCCNC(=O)CC[C@H](NC(=O)CC[C@H](NC(=O)CC[C@H](NC(=O)CC[C@H](NC(=O)CC[C@H](NC(=O)CC[C@H](NC(=O)CCCCCCCCCCCCCCCCCCC(=O)O)C(=O)O)C(=O)O)C(=O)O)C(=O)O)C(=O)O)C(=O)O)C(=O)NCC(=O)NCC(=O)N1CCC[C@H]1C(=O)N[C@@H](CO)C(=O)N[C@@H](CO)C(=O)NCC(=O)N[C@@H](C)C(=O)N[C@@H](CO)C(=O)N[C@@H](CC(C)C)C(=O)N[C@@H](CCCNC(=N)N)C(=O)N[C@@H](Cc1c[nH]cn1)C(=O)N[C@@H](Cc1ccc(O)cc1)C(=O)N[C@@H](Cc1ccc(O)cc1)C(=O)N[C@@H](CC(N)=O)C(=O)N[C@@H](Cc1c[nH]c2ccccc12)C(=O)N[C@@H](CC(C)C)C(=O)N[C@H](C(=O)N[C@@H](CCCNC(=N)N)C(=O)N[C@@H](CCC(N)=O)C(=O)N[C@@H](CCCNC(=N)N)C(=O)N[C@@H](Cc1ccc(O)cc1)C(N)=O)[C@@H](C)O [Compound 87, Y-Aib-D-G-T-F-T-S-D-Y-S-I-Aib-L-E-K-Q-A-Q-Aib-A-F-V-E-W-L-I-K(1,3)-GGPSSGASLRHYYNWLTRQRY-NH2.C20DA-gGlu-gGlu-gGlu-gGlu-gGlu-gGlu-eLys(1,2)] | 10.10 | 8.70 | 9.24 | 7.68
2 | 9.68 | 9.70 | 8.92 | 7.99 | 7.44 | H-Y[Aib]EGTFTSDYSI[Aib]LEKEAQ[Aib]KFVEWLIK([εLys-γGlu-γGlu-γGlu-γGlu-γGlu-γGlu-C20 diacid])GGPSSGASLRHYYNWLTRQRY-NH2 [Compound 46, Y-Aib-E-G-T-F-T-S-D-Y-S-I-Aib-L-E-K-E-A-Q-Aib-K-F-V-E-W-L-I-K(1,3)-GGPSSGASLRHYYNWLTRQRY-NH2.C20DA-gGlu-gGlu-gGlu-gGlu-gGlu-gGlu-eLys(1,2)] |  |  |  | 
3 | 10.00 | 10.05 | 9.08 | 8.00 | 7.40 | H-Y[Aib]EGTFTSDYSI[Aib]LEKQAQ[Aib]AFVEWLIK([εLys-γGlu-γGlu-γGlu-γGlu-γGlu-γGlu-C20 diacid])GGPSEGQSIRHYYNWLTRQRY-NH2 [Compound 134, Y-Aib-E-G-T-F-T-S-D-Y-S-I-Aib-L-E-K-Q-A-Q-Aib-A-F-V-E-W-L-I-K(1,3)-GGPSEGQSIRHYYNWLTRQRY-NH2.C20DA-gGlu-gGlu-gGlu-gGlu-gGlu-gGlu-eLys(1,2)] |  |  |  | 
4 | 9.96 | 9.59 | 8.80 | 7.92 | 7.19 | H-Y[Aib]EGTFTSDYSI[Aib]LEKQAQ[Aib]AFIEWLIK([γGlu-γGlu-γGlu-γGlu-C18 diacid])GGPSEGASLRHYYNWLTRQRY-NH2 [Compound 247, Y-Aib-E-G-T-F-T-S-D-Y-S-I-Aib-L-E-K-Q-A-Q-Aib-A-F-I-E-W-L-I-K(1,3)-GGPSEGASLRHYYNWLTRQRY-NH2.C18DA-gGlu-gGlu-gGlu-gGlu(1,2)] |  |  |  | 
5 | 9.85 | 9.37 |  | < 7.00 |  | H-Y[Aib]EGTFTSDYSI[Aib]LEKQAQ[Aib]AFVEWLIK([εLys-γGlu-γGlu-γGlu-γGlu-γGlu-γGlu-C20 diacid])GGPSSGASLRHYLNL[Aib]TRQRY-NH2 [Compound 17, Y-Aib-E-G-T-F-T-S-D-Y-S-I-Aib-L-E-K-Q-A-Q-Aib-A-F-V-E-W-L-I-K(1,3)-G-G-P-S-S-G-A-S-L-R-H-Y-L-N-L-Aib-T-R-Q-R-Y-NH2.C20DA-gGlu-gGlu-gGlu-gGlu-gGlu-gGlu-eLys(1,2)] |  |  |  | 
6 | 10.00 | 9.74 | 9.15 | 7.84 |  | H-Y[Aib]EGTFTSDYSI[Aib]LEKQAQ[Aib]AFVEWLIK([Glu-Glu-Glu-Glu-C18 diacid])GGPSEGASLRHYYNWLTRQRY-NH2 [Compound 291, Y-Aib-E-G-T-F-T-S-D-Y-S-I-Aib-L-E-K-Q-A-Q-Aib-A-F-V-E-W-L-I-K(1,3)-GGPSEGASLRHYYNWLTRQRY-NH2.C18DA-E-E-E-E(1,2)] |  |  |  | 
7 | 9.89 | 9.57 |  | 7.78 | 7.23 | H-Y[Aib]EGTFTSDYSI[Aib]LEKQAQ[Aib]AFVEWLIK([εLys-γGlu-γGlu-γGlu-γGlu-γGlu-γGlu-C20 diacid])GGPSSGLSLRHYYNWLTRQRY-NH2 [Compound 107, Y-Aib-E-G-T-F-T-S-D-Y-S-I-Aib-L-E-K-Q-A-Q-Aib-A-F-V-E-W-L-I-K(1,3)-GGPSSGLSLRHYYNWLTRQRY-NH2.C20DA-gGlu-gGlu-gGlu-gGlu-gGlu-gGlu-eLys(1,2)] |  |  |  | 
8 | 9.89 | 10.10 | 9.28 | 7.88 |  | H-Y[Aib]EGTFTSDYSI[Aib]LEKQAE[Aib]AFVEWLIK([γGlu-γGlu-γGlu-γGlu-C18 diacid])GGPSEGASLRHYYNWLTRQRY-NH2 [Compound 262, Y-Aib-E-G-T-F-T-S-D-Y-S-I-Aib-L-E-K-Q-A-E-Aib-A-F-V-E-W-L-I-K(1,3)-GGPSEGASLRHYYNWLTRQRY-NH2.C18DA-gGlu-gGlu-gGlu-gGlu(1,2)] |  |  |  | 
9 | 9.64 | 9.55 | 8.76 | 7.51 | 7.00 | H-Y[Aib]EGTFTSDYSI[Aib]LEKQAQ[Aib]AFVQWLIK([εLys-γGlu-γGlu-γGlu-γGlu-γGlu-γGlu-C20 diacid])GGPSEGASLRHYYNWLTRQ[NMeR]Y-NH2 [Compound 125, Y-Aib-E-G-T-F-T-S-D-Y-S-I-Aib-L-E-K-Q-A-Q-Aib-A-F-V-Q-W-L-I-K(1,3)-G-G-P-S-E-G-A-S-L-R-H-Y-Y-N-W-L-T-R-Q-NMeR-Y-NH2.C20DA-gGlu-gGlu-gGlu-gGlu-gGlu-gGlu-eLys(1,2)] |  |  |  | 
10 | 9.59 | 9.40 | 8.97 | 7.97 |  | H-Y[Aib]EGTFTSDYSI[Aib]LEKQAQ[Aib]EFVQWLIK([εLys-γGlu-γGlu-γGlu-γGlu-γGlu-C18 diacid])GGPSEGASLRHYYNWLTRQRY-NH2 [Compound 154, Y-Aib-E-G-T-F-T-S-D-Y-S-I-Aib-L-E-K-Q-A-Q-Aib-E-F-V-Q-W-L-I-K(1,3)-GGPSEGASLRHYYNWLTRQRY-NH2.C18DA-gGlu-gGlu-gGlu-gGlu-gGlu-eLys(1,2)] |  |  |  | 
11 | 9.60 | 9.92 | 9.10 | 7.73 |  | H-Y[Aib]EGTFTSDYSI[Aib]LEKQAQ[Aib]AFVEWLIK([AEEA-AEEA-γGlu-γGlu-γGlu-C18 diacid])GGPEEGASLRHYYNWLTRQRY-NH2 [Compound 248, Y-Aib-E-G-T-F-T-S-D-Y-S-I-Aib-L-E-K-Q-A-Q-Aib-A-F-V-E-W-L-I-K(1,3)-GGPEEGASLRHYYNWLTRQRY-NH2.C18DA-gGlu-gGlu-gGlu-OEG-OEG(1,2)] |  |  |  | 
12 | 9.80 | 8.94 | 9.10 | 7.80 | 7.31 | H-Y[Aib]EGTFTSDYSI[Aib]LEKQAQ[Aib]AFVQWLIK([AEEA-AEEA-γGlu-γGlu-γGlu-C18 diacid])GGPEEGASLRHYYNWLTRQRY-NH2 [Compound 144, Y-Aib-E-G-T-F-T-S-D-Y-S-I-Aib-L-E-K-Q-A-Q-Aib-A-F-V-Q-W-L-I-K(1,3)-GGPEEGASLRHYYNWLTRQRY-NH2.C18DA-gGlu-gGlu-gGlu-OEG-OEG(1,2)] |  |  |  | 
